# Values of other authors in patent US9920347B2, “Methods for producing virus particles with simplified glycosylation of surface proteins” (priority 2010, dated 2018).
# Assays:
# [1] = test system: alpha-glucosidase
# [2] = test system: dengue virus
# [3] = target: T1, Golgi mannosidase II (Homo sapiens, UniProt Q16706)
# T1 sequence (Q16706 1-1144): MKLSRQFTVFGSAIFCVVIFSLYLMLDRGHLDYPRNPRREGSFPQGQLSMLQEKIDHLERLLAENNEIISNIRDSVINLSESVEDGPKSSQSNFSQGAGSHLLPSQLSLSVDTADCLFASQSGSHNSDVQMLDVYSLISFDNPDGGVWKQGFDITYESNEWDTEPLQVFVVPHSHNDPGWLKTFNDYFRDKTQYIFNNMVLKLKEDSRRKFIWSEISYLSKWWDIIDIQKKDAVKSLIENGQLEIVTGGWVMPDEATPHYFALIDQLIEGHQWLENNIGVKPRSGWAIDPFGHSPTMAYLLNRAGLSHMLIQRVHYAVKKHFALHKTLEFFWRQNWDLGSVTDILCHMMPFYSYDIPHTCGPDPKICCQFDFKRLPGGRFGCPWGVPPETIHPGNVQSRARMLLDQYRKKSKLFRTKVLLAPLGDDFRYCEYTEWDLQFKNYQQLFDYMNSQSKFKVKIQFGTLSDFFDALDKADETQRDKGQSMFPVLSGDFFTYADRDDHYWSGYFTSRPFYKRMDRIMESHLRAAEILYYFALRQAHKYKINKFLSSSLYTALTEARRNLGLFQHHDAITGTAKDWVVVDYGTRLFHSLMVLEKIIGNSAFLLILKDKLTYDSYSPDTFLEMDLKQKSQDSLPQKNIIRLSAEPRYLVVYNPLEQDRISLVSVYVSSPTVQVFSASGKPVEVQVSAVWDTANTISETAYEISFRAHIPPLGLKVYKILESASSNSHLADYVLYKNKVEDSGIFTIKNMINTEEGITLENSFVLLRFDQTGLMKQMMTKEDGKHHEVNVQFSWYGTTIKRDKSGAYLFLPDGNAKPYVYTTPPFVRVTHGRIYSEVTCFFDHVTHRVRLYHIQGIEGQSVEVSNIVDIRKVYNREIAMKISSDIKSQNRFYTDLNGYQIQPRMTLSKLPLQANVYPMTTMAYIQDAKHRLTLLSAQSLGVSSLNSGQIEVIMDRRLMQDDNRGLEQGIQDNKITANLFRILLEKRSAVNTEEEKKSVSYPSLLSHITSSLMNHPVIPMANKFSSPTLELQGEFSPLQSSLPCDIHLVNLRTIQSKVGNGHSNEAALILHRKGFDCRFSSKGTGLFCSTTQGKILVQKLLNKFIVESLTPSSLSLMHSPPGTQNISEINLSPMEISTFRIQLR
# [4] = test system: mannosidase 1
# [5] = test system: rat liver mammosidase I
# [6] = test system: intact cells; settings: glycoproteins with Man7-9(GlcNAc)2 structures accumulate
# [7] = test system: cultured mammalian cells
# [8] = target: alpha-glucosidase amyloglucosidase (Aspergillus niger, UniProt P69328); settings: read-out: concentration giving 50% inhibition of amyloglucosidase
# Chain of alpha-glucosidase amyloglucosidase (P69328 25-640): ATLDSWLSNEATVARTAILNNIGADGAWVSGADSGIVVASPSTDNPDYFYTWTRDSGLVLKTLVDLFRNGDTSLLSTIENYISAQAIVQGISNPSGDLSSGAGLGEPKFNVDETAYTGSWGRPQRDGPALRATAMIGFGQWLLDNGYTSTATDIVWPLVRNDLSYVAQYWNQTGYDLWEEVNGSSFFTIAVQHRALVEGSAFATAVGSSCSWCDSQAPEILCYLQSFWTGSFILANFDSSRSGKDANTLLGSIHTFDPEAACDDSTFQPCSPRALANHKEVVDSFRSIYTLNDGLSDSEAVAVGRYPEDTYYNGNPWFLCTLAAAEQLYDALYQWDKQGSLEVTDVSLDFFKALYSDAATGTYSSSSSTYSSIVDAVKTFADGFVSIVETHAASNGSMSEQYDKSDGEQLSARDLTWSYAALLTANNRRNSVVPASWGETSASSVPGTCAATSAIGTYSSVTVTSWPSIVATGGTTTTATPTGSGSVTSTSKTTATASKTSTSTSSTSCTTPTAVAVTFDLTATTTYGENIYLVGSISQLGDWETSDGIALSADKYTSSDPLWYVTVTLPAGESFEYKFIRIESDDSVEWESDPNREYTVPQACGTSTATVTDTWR
# [9] = test system: beta-glucosidase
# [10] = test system: alpha-mannosidase
# [11] = test system: beta-mannosidase
# [12] = test system: alpha-galactosidase
# [13] = test system: beta-galactosidase
# [14] = test system: rat epididymal α-mannosidase
# [15] = test system: animal Golgi enzyme, mannosidase I
compound,measurement,setting,value
O[C@H]1[C@H](O)[C@@H](O)CN2CC[C@H](O)[C@H]12 [Castanospermine],inhibition of alpha-glucosidase activities,[1],inhibits
same,inhibition of dengue virus infection,[2],inhibits
O[C@H]1[C@H]2[C@H](O)CCCN2C[C@H]1O [Swainsonine],inhibition of Golgi mannosidase II,[3],potent inhibitor
same,effect on mannosidase 1,[4],no effect
OC[C@H]1NC[C@@H](O)[C@@H](O)[C@@H]1O [Deoxymannojirimycin],inhibition of rat liver mammosidase I,[5],fairly potent inhibitor
same,effect on synthesis of complex types of N-linked oligosaccharides,[6],blocked the synthesis of complex types of N-linked oligosaccharides
same,prevention of formation of complex chains,[7]; 50 μg/ml,does not prevent the formation of all complex chains
OC[C@@H]1[C@@H](O)[C@H](O)[C@H]2[C@@H](O)CCN21 [Australine],IC50,[8],5.8 µM
same,inhibition of beta-glucosidase,[9],did not inhibit
same,inhibition of alpha-mannosidase,[10],did not inhibit
same,inhibition of beta-mannosidase,[11],did not inhibit
same,inhibition of alpha-galactosidase,[12],did not inhibit
same,inhibition of beta-galactosidase,[13],did not inhibit
CS[C@@H]1[C@@H](N)[C@@H](O)[C@@H](O)[C@H]1O [Mannostatin A],inhibition of rat epididymal α-mannosidase,[14],potent inhibitor
O=C1N[C@@H]2[C@@H](O)[C@@H](O)[C@H](O)[C@@H](CO)N2C1=O [Kifunensine],inhibition of mannosidase I,[15],inhibits
same,shift of N-linked oligosaccharides from complex chains to Man9(GlcNAc)2 structures,[7]; 1 μg/ml or higher,complete shift
